Here are results for three compounds from patent EP1285918A1, “C7 Ester substituted taxanes as antitumor agents” (Florida State University Research Foundation, Inc., priority 2001, dated 2003).

Like-named read-outs stand apart in the source and are kept apart here.

Series [1] deals with DU 145 Human Prostate Carcinoma Xenografts. The conditions noted are these: DU145. How it is done: (§1) Other antitumor compounds were similarly formulated. […] The dosing volume was 0.3 ml per 20 g mouse.
Male NCr-nude mice (implanted subcutaneously with 1 mm^3 DU145 prostate carcinoma fragments in the flank) were sorted into treatment groups of five mice each. […] Dosing was initiated on Day 1. The antitumor compounds were given i.v. at an estimated maximum tolerated dose (MTD) appropriate for each agent on a qd x 1 schedule (single administration of compound). […] The vehicle was administered i.v. to control mice in Group 1 on the qd x 1 schedule. The study was terminated on Day 91. Treatment groups are detailed in Table 5.
The mean days of survival is the number of days after which a neoplasm reached a size of 1.5 g and the animal was euthanized. A complete response is obtained if the tumor is not palpable at the end of the study. A partial response is obtained if the tumor shrinks to a size smaller than its size on Day 1 of the study. […]

Series [2] has as its system A375 Human Melanoma Xenografts. The settings on record: A375; for survival extension compared to Group 1 controls: i.v. qd x 1 (mg/kg: Taxol 24, 1393 72.6, 1418 107.6, Taxotere 70); for Mean Score: tumor score 1 to 10, group mean. How it is done:
as §1
Female NCr-nude mice (implanted subcutaneously with 1 mm^3 A375 melanoma in the flank) were sorted into treatment groups of six mice each, except for the Taxotere group having seven mice each. […] Dosing was initiated on Day 1. The antitumor compounds were given i.v. at an estimated maximum tolerated dose (MTD) appropriate for each agent on a qd x 1 schedule (single administration of compound). […] Taxotere was given i.v. on a qd x 1 schedule at a dose of 70 mg/kg. The vehicle was administered i.v. to control mice in Group 1 on the qd x 1 schedule. Treatment groups are detailed in Table 9. The study was terminated on Day 60.
The results are summarized in Table 10 and include mean days of survival (MDS), number of toxic deaths, number of survivors, number of complete or partial responses, and number with stable disease. The mean days of survival is the number of days after which a tumor reached a size of 2.0 g and the animal was euthanized. A complete response is obtained if the tumor is not palpable at the end of the study. A partial response is obtained if the tumor shrinks to a size smaller than its size on Day 1 of the study. […]

The subject of series [3] is Panc-1 Human Pancreatic Carcinoma Xenografts. The settings on record: 6 mice/group. How it is done:
(§2) Other antitumor compounds were similarly formulated. […] The dosing volume was 0.3 mL per 20 g mouse.
Female NCr-nude mice (6-8 weeks of age, implanted subcutaneously with 1 mm^3 Panc-1 pancreatic carcinoma fragments in the flank) were sorted into treatment groups of six mice each. […] Dosing was initiated on Day 1. The antitumor compounds were given i.v. at an estimated maximum tolerated dose (MTD) appropriate for each agent on a qd x 1 schedule (single administration of compound). […] Taxotere was given i.v. at a dose of 70 mg/kg on a qd x 1 schedule. The vehicle was given i.v. to control mice in Group 1 in each test on Day 1 (qd x 1) schedule. Treatment groups are detailed in Table 12. The study was terminated on Day 63.
The mean days of survival is the number of days after which a neoplasm reached a size of 1.5 g and the animal was euthanized. A complete response is obtained if the tumor is not palpable at the end of the study. A partial response is obtained if the tumor shrinks to a size smaller than its size on Day 1 of the study.

The subject of series [4] is VM46 Human Colon Carcinoma Xenografts. The conditions noted are these: 6 mice/group; for Survivors / Complete Response / Mean Score / Partial Response / Stable Disease / Toxic Deaths / MDS (n): study end Day 64; for MDS (n): days until tumor reached 1.5 g. How it is done: as §2
Female NCr-nude mice (6-8 weeks of age, implanted subcutaneously with 1 mm^3 VM46 colon carcinoma fragments in the flank) were sorted into treatment groups of six mice each. […] Dosing was initiated on Day 1. The antitumor compounds were given i.v. at an estimated maximum tolerated dose (MTD) appropriate for each agent on a qd x 1 schedule (single administration of compound). […] Taxotere was given i.v. at a dose of 70 mg/kg on a qd x 1 schedule. The vehicle was given i.v. to control mice in Group 1 in each test on Day 1 (qd x 1) schedule. Treatment groups are detailed in Table 13. The VM46 study ended on Day 64.
The results are summarized in table 14 and include mean days of survival (MDS), number of toxic deaths, number of survivors, number of complete or partial responses, and number with stable disease. The mean days of survival is the number of days after which a neoplasm reached a size of 1.5 g and the animal was euthanized. A complete response is obtained if the tumor is not palpable at the end of the study. A partial response is obtained if the tumor shrinks to a size smaller than its size on Day 1 of the study. […]

For series [5], the system named is MX-1 Human Breast Carcinoma Xenograft. The settings on record: for Survivors / Complete Responses / Partial Responses / Stable Disease / Toxic Deaths / MDS (n): 6 mice/group, study end Day 60; for MDS (n): days until tumor reached 1.5 g. How it is done: The antitumor compounds were prepared in the following vehicle: 5% ethanol, 5% Cremophor and 90% isotonic saline.
Female Nu/Nu mice (12-13 weeks of age; implanted with 1 mm^3 MX-1 human breast carcinoma fragments in the flank) were sorted into treatment groups of six mice each (MX-1 tumor size ranges and group mean MX-1 tumor size ranges were 56-138 mg and 68-74 mg, respectively). […] All treatments were administered as a single oral bolus on Day 1, and the study was terminated on Day 60.
The mean days of survival is the number of days after which an MX-1 neoplasm reached a size of 1.5 g and the animal was euthanized. A complete response is obtained if the tumor is not palpable at the end of the study. A partial response is obtained if the tumor shrinks to a size smaller than its size on Day 1 of the study.

Setting [6] is: i.v. qd x 1 (mg/kg: Taxol 24, 1351 107.6, 1393 72.6, 1401 107.6, 1418 107.6, 1424 195.1), 5 mice/group, Day 91.
The mark [7] stands for this setting: i.v. qd x 1 (mg/kg: Taxol 24, 1351 107.6, 1393 72.6, 1401 107.6, 1418 107.6, 1424 195.1, Taxotere 70), Day 60.
[8] abbreviates: i.v. qd x 1 at estimated MTD, study end Day 63.
Setting [9] is: 73.4 mg/kg single oral bolus Day 1.
Setting [10] is: 105 mg/kg single oral bolus Day 1.
Setting [11] is: i.v. qd x 1 (mg/kg: Taxol 24, 1351 107.6, 1393 72.6, 1401 107.6, 1418 107.6, 1424 195.1, Taxotere 70).
Where [12] appears, read: Panc-1, i.v. qd x 1 (mg/kg: 1393 72.6, 1418 107.6), Day 63.
Setting [13] is: 70 mg/kg single oral bolus Day 1.
The mark [14] stands for this setting: 100 mg/kg single oral bolus Day 1.

Regarding `CCC(=O)OC1CC2OCC2(OC(C)=O)C2C(OC(=O)c3ccccc3)C3(O)CC(OC(=O)C(O)C(NC(=O)OC(C)(C)C)c4ccco4)C(C)=C(C(O)C(=O)C12C)C3(C)C` (stereo not drawn) [Compound 1393, 3'-Desphenyl-3'-(2-furyl)-7-propionyl taxotere], the Survivors in series [1] (setting [6]) is reported as 4; in series [2] (setting [7]), 0; in series [3] (setting [8]), 6; in series [4] (72.6 mg/kg i.v. qd x 1), 1; in series [5] (setting [9]), 5; in series [5] (setting [10]), 5. Also, in series [2], the “survival extension compared to Group 1 controls” value is 250%.
In series [1] (1393 72.6 mg/kg i.v. qd x 1), `CCC(=O)O[C@H]1C[C@H]2OC[C@@]2(OC(C)=O)[C@H]2[C@H](OC(=O)c3ccccc3)[C@]3(O)C[C@H](OC(=O)[C@H](O)[C@@H](NC(=O)OC(C)(C)C)c4ccco4)C(C)=C([C@@H](O)C(=O)[C@]12C)C3(C)C` [Compound 1393, 3'-Desphenyl-3'-(2-furyl)-7-propionyl taxotere] showed a complete response rate of 60%. The “Complete Response” value in series [1] (setting [6]) was 3; in series [2] (setting [7]), 0; in series [3] (setting [12]) it was 1; in series [4] (72.6 mg/kg i.v. qd x 1), 1. Besides, the “Partial Response” value in series [1] (setting [6]) turned out to be 1; in series [2] (setting [7]), 0; in series [4] (72.6 mg/kg i.v. qd x 1), 0. In addition, the “Stable Disease” value in series [1] (setting [6]) is on record as 0; in series [2] (setting [7]) it was 0; in series [4] (72.6 mg/kg i.v. qd x 1) it was 0; in series [5] (setting [9]) it was 1; in series [5] (setting [10]), 0. In addition, the “Mean Score” value in series [1] (i.v. qd x 1 (mg/kg: Taxol 24, 1351 107.6, 1393 72.6, 1401 107.6, 1418 107.6, 1424 195.1), tumor score 1 to 10, group mean) is recorded as 8 ± 1.5; in series [2] (setting [11]), 3±0; in series [4] (72.6 mg/kg i.v. qd x 1) it was 3.2 ± 1.4. Also, the “Toxic Deaths” value in series [2] (setting [7]) is reported as 0; in series [3] (setting [8]), 0; in series [4] (72.6 mg/kg i.v. qd x 1), 0; in series [5] (setting [9]), 1; in series [5] (setting [10]), 0. In addition, the Partial Responses in series [3] (setting [12]) is recorded as 4; in series [5] (setting [9]) it was 0; in series [5] (setting [10]), 0. In addition, in series [4] (72.6 mg/kg i.v. qd x 1), the “MDS (n)” value is 46.2 ± 6.1 (5) days. For the same compound, the “Complete Responses” value in series [5] (setting [9]) is given as 4; in series [5] (setting [10]) it was 5.
Consider `CC(=O)O[C@@]12CO[C@@H]1C[C@H](O)[C@@]1(C)C(=O)[C@H](O)C3=C(C)[C@@H](OC(=O)[C@H](O)[C@@H](NC(=O)OC(C)(C)C)c4ccccc4)C[C@@](O)([C@@H](OC(=O)c4ccccc4)[C@H]21)C3(C)C` [docetaxel, reference compound], for which the “MDS (n)” value in series [2] (i.v. qd x 1 (mg/kg: Taxol 24, 1351 107.6, 1393 72.6, 1401 107.6, 1418 107.6, 1424 195.1, Taxotere 70), 2.0 g cut-off, Day 60) is 21.5 ± 0.5 (7) days. For the same compound, in series [2] (setting [7]), the “Complete Response” value is recorded as 0, the “Partial Response” value is on record as 0, the “Stable Disease” value worked out at 0 and the Survivors is on record as 0. Moreover, the “Toxic Deaths” value in series [2] (setting [7]) was determined as 0. In addition, the “Mean Score” value in series [2] (setting [11]) is on record as 2±0. Moreover, the “survival extension compared to Group 1 controls” value in series [2] was 49%. Further, in series [4] (70 mg/kg i.v. qd x 1), the “Complete Response” value is reported as 0, the “Mean Score” value stood at 2 ± 0, the “Partial Response” value is listed as 0 and the “Stable Disease” value is reported as 0. Moreover, in series [4] (70 mg/kg i.v. qd x 1), the Survivors was 0, the “Toxic Deaths” value was found to be 0 and the “MDS (n)” value is given as 45.3 ± 3.6 (6) days. The MDS in series [4] (VM46, i.v. qd x 1 (Taxol 24 mg/kg, Taxotere 70 mg/kg), 1.5 g cut-off, Day 64) was found to be 45.3 days. In addition, in series [5] (setting [13]), the “Complete Responses” value is 0, the “Partial Responses” value came to 0, the “Stable Disease” value amounted to 0 and the Survivors came out at 0. Further, in series [5] (setting [13]), the “Toxic Deaths” value turned out to be 0 and the “MDS (n)” value is 27.9 ± 4.3 (6) days. Besides, in series [5] (setting [14]), the “Complete Responses” value worked out at 0, the “Partial Responses” value was found to be 1, the “Stable Disease” value came to 0 and the Survivors was 1. Besides, in series [5] (setting [14]), the “Toxic Deaths” value amounted to 0 and the “MDS (n)” value is reported as 27.1 ± 3.5 (5) days. Besides, the Partial Response result in series [5] (MX-1, single oral bolus, Taxol 40 and 28 mg/kg groups together, Taxotere 100 and 70 mg/kg groups together, Day 60) is on record as “One”.
